1 compound from article PMC5218480 (PLoS ONE, 2017) can be followed below.

The test has as its system MV-4-11 cells. The test is described as follows: Gene expression microarray analysis (Affymetrix PrimeView) and GSEA. Also noted: RFU PODN (11730768_x_at) / Fold change /veh PODN (11730768_x_at) / RFU LINC00158 (11744669_a_at) / Fold change /veh LINC00158 (11744669_a_at) / RFU DUSP10 (11751237_a_at) / Fold change /veh DUSP10 (11751237_a_at) / RFU ID3 (11757404_x_at) / Fold change /veh ID3 (11757404_x_at) / RFU PLEKHG5 (11737974_s_at) / Fold change /veh PLEKHG5 (11737974_s_at) / RFU LRRC4B (11730491_at) / Fold change /veh LRRC4B (11730491_at) / RFU GIMAP4 (11747438_a_at) / Fold change /veh GIMAP4 (11747438_a_at) / RFU KRT8 (11758183_x_at) / Fold change /veh KRT8 (11758183_x_at) / RFU CNN1 (11734310_a_at) / Fold change /veh CNN1 (11734310_a_at) / RFU VPS37D (11726825_at) / Fold change /veh VPS37D (11726825_at) / RFU C10orf10 (11716522_x_at) / Fold change /veh C10orf10 (11716522_x_at) / RFU KIR2DL2 /// KIR2DL4 /// KIR2DL5A /// KIR2DL5B /// KIR2DS1 /// KIR2DS2 /// KIR2DS3 /// KIR2DS4 /// KIR3DL3 /// KIR3DL3 /// KIR3DS1 (11738374_at) / Fold change /veh KIR2DL2 /// KIR2DL4 /// KIR2DL5A /// KIR2DL5B /// KIR2DS1 /// KIR2DS2 /// KIR2DS3 /// KIR2DS4 /// KIR3DL3 /// KIR3DL3 /// KIR3DS1 (11738374_at) / RFU C1QL1 (11718748_at) / Fold change /veh C1QL1 (11718748_at) / RFU TMPRSS4 (11747572_a_at) / Fold change /veh TMPRSS4 (11747572_a_at) / RFU HAMP (11756126_x_at) / Fold change /veh HAMP (11756126_x_at) / RFU RNFT2 (11725882_a_at) / Fold change /veh RNFT2 (11725882_a_at) / RFU NR4A2 (11747474_a_at) / Fold change /veh NR4A2 (11747474_a_at) / RFU ABCC12 (11746883_a_at) / Fold change /veh ABCC12 (11746883_a_at) / RFU TMEM136 (11760407_x_at) / Fold change /veh TMEM136 (11760407_x_at) / RFU CLDN22 /// WWC2 (11732394_at) / Fold change /veh CLDN22 /// WWC2 (11732394_at) / RFU HLA-DPB1 (11760878_x_at) / Fold change /veh HLA-DPB1 (11760878_x_at) / RFU SPINT1 (11716480_a_at) / Fold change /veh SPINT1 (11716480_a_at) / RFU GAP43 (11754022_s_at) / Fold change /veh GAP43 (11754022_s_at) / RFU A4GNT (11735810_at) / Fold change /veh A4GNT (11735810_at) / RFU PRB3 (11715151_x_at) / Fold change /veh PRB3 (11715151_x_at) / RFU TUBB4B (11761932_at) / Fold change /veh TUBB4B (11761932_at) / RFU CAPN14 (11732068_a_at) / Fold change /veh CAPN14 (11732068_a_at) / RFU TMCC2 (11721928_a_at) / Fold change /veh TMCC2 (11721928_a_at) / RFU IRGQ (11745062_a_at) / Fold change /veh IRGQ (11745062_a_at) / RFU FAM174B (11720279_a_at) / Fold change /veh FAM174B (11720279_a_at) / RFU TMPRSS4 (11748680_a_at) / Fold change /veh TMPRSS4 (11748680_a_at) / RFU FAM212B (11763350_a_at) / Fold change /veh FAM212B (11763350_a_at) / RFU PLEKHG5 (11743358_a_at) / Fold change /veh PLEKHG5 (11743358_a_at) / RFU ZSCAN30 (11745921_a_at) / Fold change /veh ZSCAN30 (11745921_a_at) / RFU CMKLR1 (11741424_a_at) / Fold change /veh CMKLR1 (11741424_a_at) / RFU LOC101060620 /// MAPK8IP1 (11723275_at) / Fold change /veh LOC101060620 /// MAPK8IP1 (11723275_at) / RFU SPTSSB (11747773_x_at) / Fold change /veh SPTSSB (11747773_x_at) / RFU PRSS12 (11739890_at) / Fold change /veh PRSS12 (11739890_at) / RFU BIN1 (11741810_x_at) / Fold change /veh BIN1 (11741810_x_at) / RFU WNT11 (11732464_a_at) / Fold change /veh WNT11 (11732464_a_at) / RFU C10orf10 (11716521_a_at) / Fold change /veh C10orf10 (11716521_a_at) / RFU C5orf56 (11738089_at) / Fold change /veh C5orf56 (11738089_at) / RFU CYB561 (11721691_x_at) / Fold change /veh CYB561 (11721691_x_at) / RFU ANKRD19P (11752326_a_at) / Fold change /veh ANKRD19P (11752326_a_at) / RFU OR2T12 /// OR2T33 /// OR2T8 (11738714_s_at) / Fold change /veh OR2T12 /// OR2T33 /// OR2T8 (11738714_s_at) / RFU VCAN (11748164_a_at) / Fold change /veh VCAN (11748164_a_at) / RFU JSRP1 (11732532_at) / Fold change /veh JSRP1 (11732532_at) / RFU KRTAP10-11 (11738290_x_at) / Fold change /veh KRTAP10-11 (11738290_x_at) / RFU MYO3A (11730013_a_at) / Fold change /veh MYO3A (11730013_a_at) / RFU EBF3 (11725865_a_at) / Fold change /veh EBF3 (11725865_a_at) / RFU CAMK2N1 (11719241_x_at) / Fold change /veh CAMK2N1 (11719241_x_at) / RFU C5orf56 (11738088_a_at) / Fold change /veh C5orf56 (11738088_a_at) / RFU OLFML3 (11715873_a_at) / Fold change /veh OLFML3 (11715873_a_at) / RFU LOC100653217 /// NTM (11731650_a_at) / Fold change /veh LOC100653217 /// NTM (11731650_a_at) / RFU MAPK11 (11762145_a_at) / Fold change /veh MAPK11 (11762145_a_at) / RFU FIZ1 (11724087_x_at) / Fold change /veh FIZ1 (11724087_x_at) / RFU OASL (11726364_x_at) / Fold change /veh OASL (11726364_x_at) / RFU SOX15 (11748057_x_at) / Fold change /veh SOX15 (11748057_x_at) / RFU CD79A (11719716_a_at) / Fold change /veh CD79A (11719716_a_at) / RFU HIST1H1D (11736915_at) / Fold change /veh HIST1H1D (11736915_at) / RFU CASKIN2 (11723855_a_at) / Fold change /veh CASKIN2 (11723855_a_at) / RFU LOC730098 (11760151_x_at) / Fold change /veh LOC730098 (11760151_x_at) / RFU OR4N2 (11742367_at) / Fold change /veh OR4N2 (11742367_at) / RFU PRRT2 (11749266_a_at) / Fold change /veh PRRT2 (11749266_a_at) / RFU SNX32 (11753110_a_at) / Fold change /veh SNX32 (11753110_a_at) / RFU CDHR5 (11726645_a_at) / Fold change /veh CDHR5 (11726645_a_at) / RFU RCAN1 (11760418_a_at) / Fold change /veh RCAN1 (11760418_a_at) / RFU FAM167A (11723789_a_at) / Fold change /veh FAM167A (11723789_a_at) / RFU FAM26E (11764081_at) / Fold change /veh FAM26E (11764081_at) / RFU ISYNA1 (11749810_s_at) / Fold change /veh ISYNA1 (11749810_s_at) / RFU ACY1 (11761880_at) / Fold change /veh ACY1 (11761880_at) / RFU 11764098_at / Fold change /veh 11764098_at / RFU SAMD14 (11745864_x_at) / Fold change /veh SAMD14 (11745864_x_at) / RFU NPB (11741838_a_at) / Fold change /veh NPB (11741838_a_at) / RFU TMPRSS6 (11731388_a_at) / Fold change /veh TMPRSS6 (11731388_a_at) / RFU KRTAP10-2 (11738614_at) / Fold change /veh KRTAP10-2 (11738614_at) / RFU ARHGAP8 /// PRR5-ARHGAP8 (11727945_x_at) / Fold change /veh ARHGAP8 /// PRR5-ARHGAP8 (11727945_x_at) / RFU KRTAP5-7 /// NADSYN1 (11734609_at) / Fold change /veh KRTAP5-7 /// NADSYN1 (11734609_at) / RFU RASL12 (11751679_a_at) / Fold change /veh RASL12 (11751679_a_at) / RFU CDKN2B (11736163_a_at) / Fold change /veh CDKN2B (11736163_a_at) / RFU PRF1 (11729649_at) / Fold change /veh PRF1 (11729649_at) / RFU, ZNF638 /// ZNF638-IT1 / Fold change vs veh, ZNF638 /// ZNF638-IT1 / RFU, PANK3 / Fold change vs veh, PANK3 / RFU, SH3YL1 / Fold change vs veh, SH3YL1 / RFU, ZEB2 / Fold change vs veh, ZEB2 / RFU, NRIP1 / Fold change vs veh, NRIP1 / RFU, PTTG1IP / Fold change vs veh, PTTG1IP / RFU, CAPN2 / Fold change vs veh, CAPN2 / RFU, MED14 / Fold change vs veh, MED14 / RFU, SNORA58 / Fold change vs veh, SNORA58 / RFU, C1orf63 / Fold change vs veh, C1orf63 / RFU, LRRFIP1 / Fold change vs veh, LRRFIP1 / RFU, NDUFAF7 / Fold change vs veh, NDUFAF7 / RFU, SLC12A2 / Fold change vs veh, SLC12A2 / RFU, IBTK / Fold change vs veh, IBTK / RFU, ESF1 / Fold change vs veh, ESF1 / Fold change vs veh, TMEM50B / RFU, TAOK1 / Fold change vs veh, TAOK1 / RFU, ACBD3 / Fold change vs veh, ACBD3 / RFU, TMA16 / Fold change vs veh, TMA16 / RFU, RWDD3 / Fold change vs veh, RWDD3 / RFU, BCAT1 / Fold change vs veh, BCAT1 / RFU, EDEM3 / Fold change vs veh, EDEM3 / RFU, TMEM33 / Fold change vs veh, TMEM33 / RFU, WDR75 / Fold change vs veh, WDR75 / RFU, AHCTF1 / Fold change vs veh, AHCTF1 / RFU, TFRC / Fold change vs veh, TFRC / RFU, ZDHHC17 / Fold change vs veh, ZDHHC17 / RFU, NOM1 / Fold change vs veh, NOM1 / RFU, ARL8B / Fold change vs veh, ARL8B / RFU, ZBTB11 / Fold change vs veh, ZBTB11 / RFU, TAMM41 / Fold change vs veh, TAMM41 / RFU, KIAA1704 /// LOC100996395 / Fold change vs veh, KIAA1704 /// LOC100996395 / RFU, ING1 / Fold change vs veh, ING1 / RFU, TRMT61B / Fold change vs veh, TRMT61B / RFU, FUBP3 / Fold change vs veh, FUBP3 / RFU, TP53 / Fold change vs veh, TP53 / RFU, TNKS2 / Fold change vs veh, TNKS2 / RFU, ZFP14 / Fold change vs veh, ZFP14 / RFU, ACTR2 / Fold change vs veh, ACTR2 / RFU, PPP3R1 / Fold change vs veh, PPP3R1 / RFU, PIK3R1 / Fold change vs veh, PIK3R1 / RFU, HNRNPA1 / Fold change vs veh, HNRNPA1 / RFU, RNF170 / Fold change vs veh, RNF170 / RFU, ZNF28 / Fold change vs veh, ZNF28 / RFU, RNGTT / Fold change vs veh, RNGTT / RFU, OGT / Fold change vs veh, OGT / RFU, BRD1 / Fold change vs veh, BRD1 / RFU, MARS / Fold change vs veh, MARS / RFU, ZNF655 / Fold change vs veh, ZNF655 / RFU, FAHD1 / Fold change vs veh, FAHD1 / RFU, BDP1 / Fold change vs veh, BDP1 / RFU, LRRCC1 / Fold change vs veh, LRRCC1 / RFU, ARID1A / Fold change vs veh, ARID1A / RFU, ZNF146 / Fold change vs veh, ZNF146 / RFU, ZNF330 / Fold change vs veh, ZNF330 / RFU, GPN3 / Fold change vs veh, GPN3 / RFU, C9orf123 / Fold change vs veh, C9orf123 / RFU, N4BP2L2 / Fold change vs veh, N4BP2L2 / RFU, ARFIP1 / Fold change vs veh, ARFIP1 / RFU, FAM179B / Fold change vs veh, FAM179B / RFU, BCL10 / Fold change vs veh, BCL10 / RFU, UHRF1BP1L / Fold change vs veh, UHRF1BP1L / RFU, BET1 / Fold change vs veh, BET1 / RFU, CNOT2 / Fold change vs veh, CNOT2 / RFU, ZNF268 / Fold change vs veh, ZNF268 / Fold change vs veh, ZNF507 / RFU, DGCR2 / Fold change vs veh, DGCR2 / RFU, WDSUB1 / Fold change vs veh, WDSUB1 / Fold change vs veh, HSP90B1 /// MIR3652 / RFU, ADSS / Fold change vs veh, ADSS / RFU, GK / Fold change vs veh, GK / RFU, ZNF148 / Fold change vs veh, ZNF148 / RFU, TAF9 / Fold change vs veh, TAF9 / RFU, SLC1A5 / Fold change vs veh, SLC1A5 / RFU, SLMO2 / Fold change vs veh, SLMO2 / RFU, ABCC4 / Fold change vs veh, ABCC4 / RFU, LOC101060439 /// RAP1B / Fold change vs veh, LOC101060439 /// RAP1B / RFU, RFX7 / Fold change vs veh, RFX7 / RFU, GTPBP10 / Fold change vs veh, GTPBP10 / RFU, CNEP1R1 / Fold change vs veh, CNEP1R1 / RFU, BIVM-ERCC5 /// ERCC5 / Fold change vs veh, BIVM-ERCC5 /// ERCC5 / RFU, ILF3 / Fold change vs veh, ILF3 / RFU 11762660_at / Fold change /veh 11762660_at / RFU VCAN (11757783_s_at) / Fold change /veh VCAN (11757783_s_at) / RFU DDX43 (11728927_at) / Fold change /veh DDX43 (11728927_at) / RFU KRT8 (11758188_x_at) / Fold change /veh KRT8 (11758188_x_at) / RFU NKD1 (11759106_at) / Fold change /veh NKD1 (11759106_at) / RFU SRD5A1 (11742802_a_at) / Fold change /veh SRD5A1 (11742802_a_at) / RFU TPSAB1 /// TPSB2 (11721975_s_at) / Fold change /veh TPSAB1 /// TPSB2 (11721975_s_at) / RFU GSTM3 (11746129_a_at) / Fold change /veh GSTM3 (11746129_a_at) / RFU IL23R (11737362_x_at) / Fold change /veh IL23R (11737362_x_at) / RFU TMEM51 (11727254_a_at) / Fold change /veh TMEM51 (11727254_a_at) / RFU PIWIL2 (11732686_x_at) / Fold change /veh PIWIL2 (11732686_x_at) / RFU ORM1 (11744905_x_at) / Fold change /veh ORM1 (11744905_x_at) / RFU CCDC152 (11743942_at) / Fold change /veh CCDC152 (11743942_at) / RFU ECM1 (11717891_a_at) / Fold change /veh ECM1 (11717891_a_at) / RFU IL23R (11748794_a_at) / Fold change /veh IL23R (11748794_a_at) / RFU TNFAIP8L3 (11732012_x_at) / Fold change /veh TNFAIP8L3 (11732012_x_at) / RFU MBOAT4 (11741988_at) / Fold change /veh MBOAT4 (11741988_at) / RFU 11764193_at / Fold change /veh 11764193_at / RFU TMEM53 (11763286_at) / Fold change /veh TMEM53 (11763286_at) / RFU MAGEB2 (11727129_at) / Fold change /veh MAGEB2 (11727129_at) / RFU TMEM200A (11744735_a_at) / Fold change /veh TMEM200A (11744735_a_at) / RFU CCDC152 (11751479_a_at) / Fold change /veh CCDC152 (11751479_a_at) / RFU FAM211A (11726209_a_at) / Fold change /veh FAM211A (11726209_a_at) / RFU RGS16 (11746705_a_at) / Fold change /veh RGS16 (11746705_a_at) / RFU VCAN (11755009_s_at) / Fold change /veh VCAN (11755009_s_at) / RFU RHOB (11743442_s_at) / Fold change /veh RHOB (11743442_s_at) / RFU RGS16 (11720943_a_at) / Fold change /veh RGS16 (11720943_a_at) / RFU RGS16 (11720944_at) / Fold change /veh RGS16 (11720944_at) / RFU, VPS4B / Fold change vs veh, VPS4B / RFU, CREB1 / Fold change vs veh, CREB1 / RFU, DNAJC13 / Fold change vs veh, DNAJC13 / RFU, GNAQ / Fold change vs veh, GNAQ / RFU, CDK5R1 / Fold change vs veh, CDK5R1 / RFU, ZRANB3 / Fold change vs veh, ZRANB3 / RFU, CUL4A / Fold change vs veh, CUL4A / RFU, CCNY / Fold change vs veh, CCNY / RFU, UFL1 / Fold change vs veh, UFL1 / RFU, COG3 / Fold change vs veh, COG3 / RFU, DIAPH2 / Fold change vs veh, DIAPH2 / RFU, SKA2 / Fold change vs veh, SKA2 / RFU, AFF3 / Fold change vs veh, AFF3 / RFU, LMF1 / Fold change vs veh, LMF1 / RFU, IPO11 / Fold change vs veh, IPO11 / RFU, DFFB / Fold change vs veh, DFFB / RFU, FOXP1 / Fold change vs veh, FOXP1 / RFU, CARD8 / Fold change vs veh, CARD8 / RFU, STRN3 / Fold change vs veh, STRN3 / RFU, ADK / Fold change vs veh, ADK / RFU, RASSF2 / Fold change vs veh, RASSF2 / RFU, WIPF1 / Fold change vs veh, WIPF1 / RFU, LARP1B / Fold change vs veh, LARP1B / RFU, RASA1 / Fold change vs veh, RASA1 / RFU, RB1 / Fold change vs veh, RB1 / RFU, PPFIA1 / Fold change vs veh, PPFIA1 / RFU, MAT2A / Fold change vs veh, MAT2A / RFU, CCT5 / Fold change vs veh, CCT5 / RFU, WDR92 / Fold change vs veh, WDR92 / RFU, CUX1 / Fold change vs veh, CUX1 / RFU, TTC7A / Fold change vs veh, TTC7A / RFU, TMEM135 / Fold change vs veh, TMEM135 / RFU, DEPTOR / Fold change vs veh, DEPTOR / RFU, CPM / Fold change vs veh, CPM / RFU, DNAJB6 / Fold change vs veh, DNAJB6 / RFU, CACNA2D3 / Fold change vs veh, CACNA2D3 / RFU, DTX4 / Fold change vs veh, DTX4 / RFU, TFCP2 / Fold change vs veh, TFCP2 / RFU, GMCL1 /// GMCL1P1 / Fold change vs veh, GMCL1 /// GMCL1P1 / RFU, AEBP2 / Fold change vs veh, AEBP2 / RFU, SNHG1 /// SNORD22 /// SNORD25 /// SNORD26 /// SNORD27 /// SNORD28 /// SNORD29 /// SNORD31 / Fold change vs veh, SNHG1 /// SNORD22 /// SNORD25 /// SNORD26 /// SNORD27 /// SNORD28 /// SNORD29 /// SNORD31 / Fold change (Aza/veh), C12orf56 (ProbeSet 11735607_a_at) / Fold change (ACY-1035/veh), C12orf56 (ProbeSet 11735607_a_at) / Fold change (Aza/veh), FGFR1OP (ProbeSet 11751329_s_at) / Fold change (ACY-1035/veh), FGFR1OP (ProbeSet 11751329_s_at) / Fold change (Aza/veh), VPS36 (ProbeSet 11739960_a_at) / Fold change (ACY-1035/veh), VPS36 (ProbeSet 11739960_a_at) / RFU SYPL1 (11715823_x_at) / Fold change /veh SYPL1 (11715823_x_at) / RFU IGFBP7 (11715501_s_at) / Fold change /veh IGFBP7 (11715501_s_at) / RFU REEP3 (11722064_at) / Fold change /veh REEP3 (11722064_at) / RFU IGLL1 (11728026_x_at) / Fold change /veh IGLL1 (11728026_x_at): dose or concentration left out as unconfirmed. To be noted: ProbeSet 11749645_x_at; LIST B. It is filed as cell-based, human.

Each structure is given as a SMILES string.

Consider `Nc1ncn([C@@H]2O[C@H](CO)[C@@H](O)[C@H]2O)c(=O)n1` [azacitidine], for which the “Fold change vs veh, ZNF268” value is on record as 0.97.
